# Reference: US12384751B2, “Allosteric activators of the ALPHA1A-adrenergic receptor” (The Cleveland Clinic Foundation, priority 2019, dated 2025)
# “Also recorded” adds a separate entry of the source.
# What was measured:
# α1B-AR [1] = target: T1, α1B-AR (Homo sapiens, UniProt P35368); assay: Competition binding with [125I]HEAT at α1B-AR
# T1 construct: expressed in transfected cells; host or cells: Rat-1 fibroblast cells
# T1 sequence (P35368 1-520): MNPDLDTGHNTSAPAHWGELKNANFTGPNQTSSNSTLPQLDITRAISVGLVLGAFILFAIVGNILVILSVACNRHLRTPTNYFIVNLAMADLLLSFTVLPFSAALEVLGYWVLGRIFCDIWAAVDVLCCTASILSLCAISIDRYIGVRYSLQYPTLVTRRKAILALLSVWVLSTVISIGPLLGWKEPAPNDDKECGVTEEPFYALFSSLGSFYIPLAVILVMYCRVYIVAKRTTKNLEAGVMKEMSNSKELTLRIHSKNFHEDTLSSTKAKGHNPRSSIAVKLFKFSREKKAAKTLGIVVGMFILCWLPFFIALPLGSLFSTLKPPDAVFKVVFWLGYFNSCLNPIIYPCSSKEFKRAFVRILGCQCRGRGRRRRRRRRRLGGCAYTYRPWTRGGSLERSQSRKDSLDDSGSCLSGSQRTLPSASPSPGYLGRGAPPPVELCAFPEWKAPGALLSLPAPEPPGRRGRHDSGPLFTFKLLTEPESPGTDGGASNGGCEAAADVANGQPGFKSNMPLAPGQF
# Description: (§1) Competition binding assays: These compounds were characterized for their ligand binding properties at the α1-AR subtypes. The binding affinities of Compounds 1-10 were determined in a series of competition-binding experiments with the α1-AR-selective antagonist [^125I]HEAT as the radioligand. Assays were performed in duplicate in HEM buffer, in a total assay volume of 1000 μl. Radioligand binding assays are composed of 5 ug of membranes, harvested from Rat-1 fibroblast cells expressing only one of the alpha1-AR subtypes, HEM buffer containing GTP (composed of 20 mM HEPES, pH 7.4, 1.4 mM EGTA, 12.5 mM MgCl2, pH to 7.4), 0.5 mM GTP, 35-80 pM^125I-HEAT, and various doses of norepinephrine or epinephrine and incubated with shaking at 25° C. for 1-2 hours. The above conditions will convert all the conformations of the receptor into a single low affinity site. To show both high and low affinity sites of the receptor (typically seen with GPCR agonists), the GTP is removed from the binding buffer. Nonspecific binding was determined experimentally in the presence of 10^−4 M phentolamine. Unbound radioactivity was separated from membrane-bound radioactivity by filtration through Whatman GF/C filter paper. […] Bound radioactivity remaining on the filters was counted on an ICN gamma counter operating at 79.8% efficiency. Data are analyzed using Graphpad Prism.
# α1B-AR [2] = target: T1, α1B-AR; assay: Effect of compound on binding affinity of norepinephrine at α1B-AR; conditions: 10^−5M
# Description: as §1, with “Prism. […]” for “Prism.”
# α1B-AR [3] = target: T1, α1B-AR; assay: cAMP assay at α1B-AR; format: cell-based
# Description: cAMP assay: Cells expressing a single α1-adrenergic receptor subtype are washed and re-plated into 24-well plates in DMEM media without serum at approximately 2.4×10^4 cells/well. Cells are allowed to rest till the next day in a CO2 incubator at 37° C. The cells are washed twice with DMEM (no serum), then 1 ml of DMEM is added to each well. Cells are pre-incubated for 45 mins-1 hour at 37° C. in a CO2 incubator with 10 uM propranolol, followed by 100 uM IBMX for 30 minutes. Final DMSO concentration is at 0.05%. Norepinephrine or epinephrine is added in a dose response (1 dose per well) in addition to one of the Compounds 1-10 at one concentration (i.e. 10^−5M). Cells are incubated for another 30 mins at 37° C. in a CO2 incubator. The reaction is concluded by aspirating the media and adding 0.1M HCL. The mixture is incubated for 20 mins at room temperature. The cells are scraped and suspended until homogenous. The mixture is centrifuged at 1000 g for 10 mins and the supernatant assayed the same day according to a manufacturer's cAMP kit (Cayman Select Cyclic AMP EIA kit #501040).
# [4] = system: 3×TG Alzheimer's Disease (AD) mouse model; assay: Smart Cage locomotor activity in AD mice; format: in vivo; conditions: 48 hours
smiles,measurement,setting,value
"CC(C)Cc1c(OCC2=NCCN2)cccc1N(C)S(C)(=O)=O [Compound 3, N-[3-(4,5-Dihydro-1H-imidazol-2-ylmethoxy)-2-isobutyl-phenyl]-N-methyl-methanesulfonamide]",specific binding at the α1B-AR,α1B-AR [1],"little, if any, specific binding; also recorded: no affinity"
same,effect on affinity of norepinephrine at the α1B-AR,α1B-AR [2],no effect; also recorded: does not increase the affinity of norepinephrine
same,effect on norepinephrine cAMP response at the α1B-AR,α1B-AR [3],no effect
same,locomotion assessed by amount of active time,[4],little effect on locomotion
same,locomotion assessed by velocity,[4],little effect on locomotion
